Data: patent US20100068545A1, “Compositions and methods for wood preservation” (priority 2005, published 2010)

How the values were obtained:
[1] = test system: decay fungi; assay: AWPA E7-01 field stake test, decay ratings, Gainesville, Florida; type: in vivo; parameters: scale not given here
Description: (§1) Preservative treating solutions were prepared by the mixing the concentrates in Example 1 with ethanol. The treated stakes were installed in Gainesville, Fla. for field performance evaluation following the procedure described in American Wood Preservers' Association (AWPA) Standard E7-01: “Standard Method of Evaluating Wood Preservatives by Field Tests with Stakes”.
(§2) Preservative treating solutions were prepared by the mixing the concentrates in Example 1 with toluene. The treated stakes were installed in Gainesville, Fla. for field performance evaluation following the procedure described in American Wood Preservers' Association (AWPA) Standard E7-01: “Standard Method of Evaluating Wood Preservatives by Field Tests with Stakes”.
Preservative treating solutions were prepared by the mixing the concentrates in Example 2 and 13. The treated stakes were installed in Gainesville, Fla. for field performance evaluation following the procedure described in American Wood Preservers' Association (AWPA) Standard E7-01: “Standard Method of Evaluating Wood Preservatives by Field Tests with Stakes”. […]

[2] = test system: termites; assay: AWPA E7-01 field stake test, termite ratings, Gainesville, Florida; type: in vivo; parameters: scale not given here
Description: as §1, §2
Preservative treating solutions were prepared by the mixing the concentrates in Example 2 and 13. The treated stakes were installed in Gainesville, Fla. for field performance evaluation following the procedure described in American Wood Preservers' Association (AWPA) Standard E7-01: “Standard Method of Evaluating Wood Preservatives by Field Tests with Stakes”.
Preservative treating solutions were prepared by the mixing the concentrates in Example 1 with white spirits. The treated stakes were installed in Gainesville, Fla. for field performance evaluation following the procedure described in American Wood Preservers' Association (AWPA) Standard E7-01: “Standard Method of Evaluating Wood Preservatives by Field Tests with Stakes”.

[3] = test system: brown rots or white rots; assay: Accelerated decay testing in the lab; settings: pyrethroid insecticide alone
Description: Provided herein is an organic composition and method for use thereof in treatment of cellulosic material, more particularly wood. The composition comprises an azole or quaternary ammonium fungicide compound, and a pyrethroid insecticide. The composition imparts to the treated wood resistance to both fungi and insects. […] This has been confirmed by accelerated decay testing in the lab.

[4] = 12 months, retention 0.32 kg/m^3, Ex. 14, ethanol solution
[5] = 12 months, retention 0.32 kg/m^3, Ex. 15, toluene solution
[6] = 12 months, retention 0.32 kg/m^3, Ex. 16, concentrates of Ex. 2 and 13
[7] = 12 months, retention 0.48 kg/m^3, Ex. 14, ethanol solution
[8] = 12 months, retention 0.48 kg/m^3, Ex. 15, toluene solution
[9] = 12 months, retention 0.48 kg/m^3, Ex. 16, concentrates of Ex. 2 and 13
[10] = 12 months, retention 0.64 kg/m^3, Ex. 14, ethanol solution
[11] = 12 months, retention 0.64 kg/m^3, Ex. 15, toluene solution
[12] = 12 months, retention 0.64 kg/m^3, Ex. 16, concentrates of Ex. 2 and 13
[13] = 24 months, retention 0.32 kg/m^3, Ex. 14, ethanol solution
[14] = 24 months, retention 0.32 kg/m^3, Ex. 15, toluene solution
[15] = 24 months, retention 0.32 kg/m^3, Ex. 16, concentrates of Ex. 2 and 13
[16] = 24 months, retention 0.48 kg/m^3, Ex. 14, ethanol solution
[17] = 24 months, retention 0.48 kg/m^3, Ex. 15, toluene solution
[18] = 24 months, retention 0.48 kg/m^3, Ex. 16, concentrates of Ex. 2 and 13
[19] = 24 months, retention 0.64 kg/m^3, Ex. 14, ethanol solution
[20] = 24 months, retention 0.64 kg/m^3, Ex. 15, toluene solution
[21] = 24 months, retention 0.64 kg/m^3, Ex. 16, concentrates of Ex. 2 and 13
[22] = 36 months, retention 0.32 kg/m^3, Ex. 14, ethanol solution
[23] = 36 months, retention 0.32 kg/m^3, Ex. 15, toluene solution
[24] = 36 months, retention 0.32 kg/m^3, Ex. 16, concentrates of Ex. 2 and 13
[25] = 36 months, retention 0.48 kg/m^3, Ex. 14, ethanol solution
[26] = 36 months, retention 0.48 kg/m^3, Ex. 15, toluene solution
[27] = 36 months, retention 0.48 kg/m^3, Ex. 16, concentrates of Ex. 2 and 13
[28] = 36 months, retention 0.64 kg/m^3, Ex. 14, ethanol solution
[29] = 36 months, retention 0.64 kg/m^3, Ex. 15, toluene solution
[30] = 36 months, retention 0.64 kg/m^3, Ex. 16, concentrates of Ex. 2 and 13
[31] = 48 months, retention 0.32 kg/m^3, Ex. 14, ethanol solution
[32] = 48 months, retention 0.32 kg/m^3, Ex. 15, toluene solution
[33] = 48 months, retention 0.32 kg/m^3, Ex. 16, concentrates of Ex. 2 and 13
[34] = 48 months, retention 0.48 kg/m^3, Ex. 14, ethanol solution
[35] = 48 months, retention 0.48 kg/m^3, Ex. 15, toluene solution
[36] = 48 months, retention 0.48 kg/m^3, Ex. 16, concentrates of Ex. 2 and 13
[37] = 48 months, retention 0.64 kg/m^3, Ex. 14, ethanol solution
[38] = 48 months, retention 0.64 kg/m^3, Ex. 15, toluene solution
[39] = 48 months, retention 0.64 kg/m^3, Ex. 16, concentrates of Ex. 2 and 13

For CC(C)(C)C(O)(CCc1ccc(Cl)cc1)Cn1cncn1 (racemic) [Tebuconazole, (RS)-1-p-chlorophenyl-4,4-dimethyl-3-(1H-1,2,4-triazol-1-ylmethyl)pentan-3-ol], the “Average Decay Rating” value [1, 4] was 8.2, the “Average Decay Rating” value [1, 5] was 8.2 and the “Average Decay Rating” value [1, 6] was 8.2. The “Average Decay Rating” value [1, 7] was 5.8, the “Average Decay Rating” value [1, 8] was 5.8 and the “Average Decay Rating” value [1, 9] was 5.8. The “Average Decay Rating” value [1, 10] was 8.7, the “Average Decay Rating” value [1, 11] was 8.7 and the “Average Decay Rating” value [1, 12] was 8.7. The “Average Decay Rating” value [1, 13] was 2.6, the “Average Decay Rating” value [1, 14] was 2.6 and the “Average Decay Rating” value [1, 15] was 2.6. For the same compound, the “Average Decay Rating” value [1, 16] was 0.8, the “Average Decay Rating” value [1, 17] was 0.8 and the “Average Decay Rating” value [1, 18] was 0.8. The “Average Decay Rating” value [1, 19] was 1.2, the “Average Decay Rating” value [1, 20] was 1.2 and the “Average Decay Rating” value [1, 21] was 1.2. The “Average Decay Rating” value [1, 22] was 0.0, the “Average Decay Rating” value [1, 23] was 0.0 and the “Average Decay Rating” value [1, 24] was 0.0. For the same compound, the “Average Decay Rating” value [1, 25] was 0.0, the “Average Decay Rating” value [1, 26] was 0.0 and the “Average Decay Rating” value [1, 27] was 0.0. For the same compound, the “Average Decay Rating” value [1, 28] was 0.0, the “Average Decay Rating” value [1, 29] was 0.0 and the “Average Decay Rating” value [1, 30] was 0.0. For the same compound, the “Average Decay Rating” value [1, 31] was 0.0, the “Average Decay Rating” value [1, 32] was 0.0 and the “Average Decay Rating” value [1, 33] was 0.0. The “Average Decay Rating” value [1, 34] was 0.0, the “Average Decay Rating” value [1, 35] was 0.0 and the “Average Decay Rating” value [1, 36] was 0.0. The “Average Decay Rating” value [1, 37] was 0.0, the “Average Decay Rating” value [1, 38] was 0.0 and the “Average Decay Rating” value [1, 39] was 0.0. For the same compound, the “Average Termite Rating” value [2, 4] was 4.2, the “Average Termite Rating” value [2, 5] was 4.2 and the “Average Termite Rating” value [2, 6] was 4.2. For the same compound, the “Average Termite Rating” value [2, 7] was 4.5, the “Average Termite Rating” value [2, 8] was 4.5 and the “Average Termite Rating” value [2, 9] was 4.5. The “Average Termite Rating” value [2, 10] was 4.8, the “Average Termite Rating” value [2, 11] was 4.8 and the “Average Termite Rating” value [2, 12] was 4.8. The “Average Termite Rating” value [2, 13] was 0.6, the “Average Termite Rating” value [2, 14] was 0.6 and the “Average Termite Rating” value [2, 15] was 0.6. For the same compound, the “Average Termite Rating” value [2, 16] was 1.2, the “Average Termite Rating” value [2, 17] was 1.2 and the “Average Termite Rating” value [2, 18] was 1.2. For the same compound, the “Average Termite Rating” value [2, 19] was 2.0, the “Average Termite Rating” value [2, 20] was 2.0 and the “Average Termite Rating” value [2, 21] was 2.0. The “Average Termite Rating” value [2, 22] was 0.0, the “Average Termite Rating” value [2, 23] was 0.0 and the “Average Termite Rating” value [2, 24] was 0.0. The “Average Termite Rating” value [2, 25] was 0.0, the “Average Termite Rating” value [2, 26] was 0.0 and the “Average Termite Rating” value [2, 27] was 0.0. The “Average Termite Rating” value [2, 28] was 0.0, the “Average Termite Rating” value [2, 29] was 0.0 and the “Average Termite Rating” value [2, 30] was 0.0. For the same compound, the “Average Termite Rating” value [2, 31] was 0.0, the “Average Termite Rating” value [2, 32] was 0.0 and the “Average Termite Rating” value [2, 33] was 0.0. For the same compound, the “Average Termite Rating” value [2, 34] was 0.0, the “Average Termite Rating” value [2, 35] was 0.0 and the “Average Termite Rating” value [2, 36] was 0.0. The “Average Termite Rating” value [2, 37] was 0.0, the “Average Termite Rating” value [2, 38] was 0.0 and the “Average Termite Rating” value [2, 39] was 0.0.

In the case of Cc1c(COC(=O)[C@@H]2[C@H](/C=C(\Cl)C(F)(F)F)C2(C)C)cccc1-c1ccccc1 (racemic) [bifenthrin], the “Fungicidal activity against brown rots or white rots” value (from here on “Fungicidal activity”) [3] is reported as “generally do not have fungicidal activity”.

CC1(C)C(C=C(Cl)Cl)C1C(=O)OC(C#N)c1cccc(Oc2ccccc2)c1 (stereo not drawn) [cypermethrin] was tested, and the “Fungicidal activity” value [3] was “generally do not have fungicidal activity”.

With CC1(C)C(C=C(Cl)Cl)C1C(=O)OCc1cccc(Oc2ccccc2)c1 (stereo not drawn) [permethrin] the “Fungicidal activity” value [3] was “generally do not have fungicidal activity”.
